This note sets out measurements from patent US6664083B2, “Methods for racemizing N-acylamino acids and producing optically active amino acids” (Daichel Chemical Industries, Ltd., priority 2000, dated 2003).

In one experiment the test system is N-acylamino acid racemase. The experiment in a line: Substrate specificity of N-acylamino acid racemase (enzyme activity assay, TNBS method). The experiment is classed as biochemical, Sebekia benihana. As to conditions: substrate 20 mM, 1 mM cobalt chloride, pH 7.5, 30° C.; activity on N-acetyl-D-methionine taken as 100. As for the experimental part:
The activity of N-acylamino acid racemase was measured by the following method. First, the following reaction solution was prepared. [table] […] Subsequently, 3 U of L-amino acylase were added to the mixture, and incubated for 1 hour at 30° C. The mixture was then heated at 100° C. for 3 minutes to stop the reaction. The amount of L-methionine produced was measured by TNBS method after the reaction was stopped. […] Substrate specificity was determined by measuring enzyme activities according to the above-mentioned enzyme assay, with varying the substrate in the reaction.
On to `CC(=O)N[C@@H](Cc1c[nH]c2ccccc12)C(=O)O` [N-acetyltryptophan], for which the “Relative activity (%)” value amounted to 69%. Same read-out and setting: then `CSCC[C@H](NC(C)=O)C(=O)O` [N-acetylmethionine], with 100%. On to `CC(=O)N[C@@H](Cc1ccccc1)C(=O)O` [N-acetylphenylalanine], for which the “Relative activity (%)” value is 74%.

As for `CC(=O)N[C@@H](CC(=O)O)C(=O)O` [N-acetylaspartic acid], the “Relative activity (%)” value was 68%.

On to `CC(=O)N[C@@H](CC(C)C)C(=O)O` [N-acetylleucine], for which the “Relative activity (%)” value is given as 78%. Turning to `CC(=O)N[C@H](C(=O)O)C(C)C` [N-acctylvaline], the “Relative activity (%)” value worked out at 146%. In the case of `CC(=O)N[C@@H](C)C(=O)O` [N-acetylalanine], the “Relative activity (%)” value is 86%.

The next experiment deals with N-acylamino acid racemase. The experiment can be described thus: Influence of metal ions on N-acylamino acid racemase activity. The experiment is classed as biochemical, Sebekia benihana. As to conditions: 1 mM. As for the experimental part: (§1) The activity of N-acylamino acid racemase was measured by the following method.
(§2) To this reaction solution, 50 μl of enzyme solution was added, and the 500 μl of the mixture was allowed to react for 5 minutes (or for several ten minutes if the activity was low) at 30° C., followed by heating at 100° C. for 3 minutes to stop the reaction. Subsequently, 3 U of L-amino acylase were added to the mixture, and incubated for 1 hour at 30° C. The mixture was then heated at 100° C. for 3 minutes to stop the reaction.
(§3) The amount of L-methionine produced was measured by TNBS method after the reaction was stopped. The enzyme activity was defined as 1 unit (U) when 1 μmole of N-acetyl-L-methionine was produced from N-acetyl-D-methionine in a minute.
Influence of various metal ions on N-acylamino acid racemase was examined in the enzymatic activity assay in which cobalt chloride (final concentration 1 mM) to be added was omitted from the reaction solution and instead each ion was added to the reaction at a final concentration of 1 mM. The mixture was incubated for 5 minutes at 30° C., and the amount of L-methionine produced was measured to determine the effect of each metal ion on the N-acylamino acid racemase, using the reaciton solution without any metal ions as a control. The enzyme activities were represented as relative activities, taking the activity in the presence of Co as 100.
Consider `O.O.O.O.O.O.[Cl-].[Cl-].[Co+2]` [CoCl2.6H2O], for which the “effect of metal ion on NAAR activity” value is “effect of activation”.

Still in this experiment, the particulars now being: metal ion 1 mM instead of cobalt chloride, 5 minutes at 30° C.; activity in the presence of Co taken as 100.
`[Cl-].[Na+]` [NaCl]: the “Relative activity (%)” value is listed as 17%. Take `O.O.O.O.O.O.[Cl-].[Cl-].[Co+2]` [CoCl2.6H2O]: the “Relative activity (%)” value came to 100%. The same measure, in the same setting: then `O.O.[Ca+2].[Cl-].[Cl-]` [CaCl2.2H2O], with 12%; and Al2(SO4)3.14˜18H2O, with 3%; and `O.O.O.O.[Cl][Mn][Cl]` [MnCl2.4H2O], with 60%. The same measure, in the same setting: then `O.O.O.O.O.O.[Cl-].[Cl-].[Mg+2]` [MgCl2.6H2O], with 27%; and `O.O.O.O.O.O.[Cl-].[Cl-].[Cl-].[Fe+3]` [FeCl3.6H2O], with 6%. The same measure, in the same setting: the value for `[Cl-].[K+]` [KCl] was 16%; that for `O.O.[Ba+2].[Cl-].[Cl-]` [BaCl2.2H2O] was 14%; that for `O.O.[Cl][Cu][Cl]` [CuCl2.2H2O] was 3%. For `[Cl][Fe][Cl]` [FeCl2.nH2O], the “Relative activity (%)” value turned out to be 34%. Still for that read-out and setting: the value for `O.O.O.O.O.O.[Cl][Ni][Cl]` [NiCl2.6H2O] was 37%.

With `[Cl-].[Cl-].[Zn+2]` [ZnCl2], the “Relative activity (%)” value is reported as 20%. With `O.O.[Cl][Sn][Cl]` [SnCl2.2H2O], the “Relative activity (%)” value is listed as 9%.

Another experiment concerns N-acylamino acid racemase. The experiment can be described thus: Influence of inhibitors on N-acylamino acid racemase activity. In kind it is biochemical, Sebekia benihana.
Settings: not given
The protocol:
as §1, §2, §3
Influence of various enzyme inhibitors on N-acylamino acid racemase was examined in the enzymatic activity assay in which each inhibitor was added to the reaction solution at the final concentration of 1 mM. The mixture was incubated for 10 minutes at 30° C., using the reaction solution without any inhibitors as a control. […] For EDTA, enzyme activity was measured at a final concentration of 5 mM as well as 1 mM.
As for `O=C(O)CI` [Monoiodoacetic acid], the NAAR activity inhibited entry is listed as “inhibited” and the “Relative activity (%)” value came out at 22%.

The experiment is the same for the next values; noted with them: inhibitor 1 mM, 10 minutes at 30° C.; activity in the absence of inhibitors taken as 100.
For `O=C(NNc1ccccc1)NNc1ccccc1` [1,5-Diphenylcarbonohydrazide], the “Relative activity (%)” value is 68%.

Take `NN.O=S(=O)(O)O` [Hydrazinium Sulfate]: the “Relative activity (%)” value was determined as 69%. Take `NO` [Hydroxylammonium chloride]: the “Relative activity (%)” value was determined as 88%. Turning to `O=C(O)c1cc[c]([Hg][Cl])cc1` [p-chloromercuribenzoic acid], the “Relative activity (%)” value was 11%. As for `CCN1C(=O)C=CC1=O` [N-ethylmaleimide], the “Relative activity (%)” value is 96%. As to `[I-].[K+]` [KI], the “Relative activity (%)” value came out at 97%. In the case of `[F-].[Na+]` [NaF], the “Relative activity (%)” value came out at 94%. On the same count and under the same terms, then `O=S(=O)(F)Cc1ccccc1` [phenylmethanesulfonyl fluoride], with 84%; and `O=C(O)CN(CCN(CC(=O)O)CC(=O)O)CC(=O)O` [EDTA], with 10%; and `c1ccc(-c2ccccn2)nc1` [2,2′-Bipyridyl], with 55%. On to `O[C@H](CS)[C@H](O)CS` (racemic) [dithiothreitol], for which the “Relative activity (%)” value was 84%.

Still in this experiment, the particulars now being: inhibitor 10 mM (table), 10 minutes at 30° C.; activity in the absence of inhibitors taken as 100.
For `O=C(O)CN(CCN(CC(=O)O)CC(=O)O)CC(=O)O` [EDTA], the “Relative activity (%)” value was found to be 0%.

The same experiment, now with this note: result in words.
As to `O=C(O)c1cc[c]([Hg][Cl])cc1` [p-chloromercuribenzoic acid], the NAAR activity inhibited result is “inhibited”. As for `O=C(O)CN(CCN(CC(=O)O)CC(=O)O)CC(=O)O` [EDTA], the NAAR activity inhibited result is “inhibited”.

Another experiment relates to N-acylamino acid racemase. The experiment in a line: Racemization of N-acetyltryptophan by N-acylamino acid racemase, optical purity by chiral HPLC. The experiment is classed as biochemical, Sebekia benihana. As to conditions: 0.5% substrate, 1 U NAAR, pH 6.5, 30° C. overnight. As for the experimental part: A reaction solution containing 100 mM potassium phosphate buffer (pH 6.5), 1 U of the N-acylamino acid racemase, and 0.5% N-acetyl-L-tryptophan or N-acetyl-D-tryptophan was incubated at 30° C. overnight. Racemization was verified by measuring optical purity of tryptophan in the reaction solution by HPLC. The optical purity of N-acetyltryptophan was determined as follows. N-acetyltryptophan was extracted from the reaction solution with methyl ethyl ketone. After the solvent was removed, the reaction product was resolved by liquid chromatography using an optical resolution column. The measurement was carried out at room temperature, using CHIRALPAK WH (DAICEL CHEMICAL INDUSTRIES, LTD.) as the optical resolution column, and aqueous solution of 0.25 mM cupric sulfate as eluent (flow rate, 1 ml/min; detection wavelength, 254 nm) to determine the quantity and optical purity. As a result, it was shown that N-acetyltryptophan produced from either N-acetyl-L-tryptophan or N-acetyl-D-tryptophan by the method of the present invention was a racemate with optical purity of nearly 0% ee at the end of the reaction.
On to `CC(=O)N[C@H](Cc1c[nH]c2ccccc12)C(=O)O` [N-acetyl-D-tryptophan], for which the “optical purity of N-acetyltryptophan at the end of the reaction” value was around 0 % ee.

Turning to `CC(=O)N[C@@H](Cc1c[nH]c2ccccc12)C(=O)O` [N-acetyl-L-tryptophan], the “optical purity of N-acetyltryptophan at the end of the reaction” value is reported as around 0 % ee.
